Test results taken from ChEMBL document CHEMBL1157517, “Hepatitis C virus NS3-4A serine protease inhibitors: SAR of new P1 derivatives of SCH 503034” (Bioorg Med Chem Lett, 2008).

What was measured:
[1] = tested on: Hepatitis C virus; assay: Antiviral activity against HCV; assay type: functional, Hepacivirus hominis
[2] = Inhibition of HCV NS3 serine protease; parameters: species or system Hepacivirus hominis
[3] = AUC in rat at 3 mg/kg, po; assay type: ADME, organism-based; parameters: dose 3 mg/kg, route oral; conditions: plasma

Row | SMILES | EC90 [1] | Ki [2] | AUC [3]
1 | CC(C)(C)NC(=O)N[C@H](C(=O)N1C[C@H]2[C@@H]([C@H]1C(=O)NC(CC1CCC1)C(=O)C(N)=O)C2(C)C)C(C)(C)C (stereo partly drawn) [BOCEPREVIR] | 0.35 µM | 0.014 µM | 
2 | CC(C)(C)NC(=O)N[C@H](C(=O)N1C[C@H]2[C@@H]([C@H]1C(=O)NC(CCCC(F)(F)F)C(=O)C(N)=O)C2(C)C)C(C)(C)C (stereo partly drawn) |  | 1.3 µM | 
3 | CC(C)(C)NC(=O)N[C@H](C(=O)N1C[C@H]2[C@@H]([C@H]1C(=O)NC(CC1(F)CCC1)C(=O)C(N)=O)C2(C)C)C(C)(C)C (stereo partly drawn) |  | 0.21 µM | 0.31 µM·h
4 | CC(F)(F)CC(NC(=O)[C@@H]1[C@@H]2[C@H](CN1C(=O)[C@@H](NC(=O)NC(C)(C)C)C(C)(C)C)C2(C)C)C(=O)C(N)=O (stereo partly drawn) |  | 0.23 µM | 
5 | CC(C)(C)NC(=O)N[C@H](C(=O)N1C[C@H]2[C@@H]([C@H]1C(=O)NC(CC1CC(F)(F)C1)C(=O)C(N)=O)C2(C)C)C(C)(C)C (stereo partly drawn) | 1.2 µM | 0.098 µM | 1.1 µM·h

Further molecules by falling Ki [2], results first:

Row | EC90 [1] | Ki [2] | AUC [3] | SMILES
6 |  | 163 µM |  | CC(C)(C)NC(=O)N[C@H](C(=O)N1C[C@H]2[C@@H]([C@H]1C(=O)NC(CC1(O)CCC1)C(=O)C(N)=O)C2(C)C)C(C)(C)C (stereo partly drawn)
7 |  | 0.36 µM |  | CCC(F)(F)CC(NC(=O)[C@@H]1[C@@H]2[C@H](CN1C(=O)[C@@H](NC(=O)NC(C)(C)C)C(C)(C)C)C2(C)C)C(=O)C(N)=O (stereo partly drawn)
8 |  | 0.16 µM |  | CC(C)(C)NC(=O)N[C@H](C(=O)N1C[C@H]2[C@@H]([C@H]1C(=O)NC(C[C@H]1C[C@@H](O)C1)C(=O)C(N)=O)C2(C)C)C(C)(C)C (stereo partly drawn)
9 |  | 0.12 µM |  | CC(C)(C)NC(=O)N[C@H](C(=O)N1C[C@H]2[C@@H]([C@H]1C(=O)NC(CC(F)(F)F)C(=O)C(N)=O)C2(C)C)C(C)(C)C (stereo partly drawn)
10 | 0.6 µM | 0.065 µM | 0.02 µM·h | CC(C)(C)NC(=O)N[C@H](C(=O)N1C[C@H]2[C@@H]([C@H]1C(=O)NC(CCC(F)(F)F)C(=O)C(N)=O)C2(C)C)C(C)(C)C (stereo partly drawn)
11 | 1 µM | 0.05 µM |  | CC(C)(C)NC(=O)N[C@H](C(=O)N1C[C@H]2[C@@H]([C@H]1C(=O)NC(CC1CC1(F)F)C(=O)C(N)=O)C2(C)C)C(C)(C)C (stereo partly drawn)
